# Reference: paper PMC8584424, “Synthesis of Novel 2-Thiouracil-5-Sulfonamide Derivatives as Potent Inducers of Cell Cycle Arrest and CDK2A Inhibition Supported by Molecular Docking” (International Journal of Molecular Sciences, 2021)
# Columns and labels:
# [1] = system: HT-29 (colon) cancer cells; assay: In vitro cytotoxicity assessment (MTT), HT-29; assay type: cell-based, human; conditions: for IC50: Homo sapiens, HT-29, 48 h, MTT, mean of three experiments ± SD, NA: not active
# From the text: (§1) Four cancer cell lines were used in this study viz ovarian (A-2780), colon (HT-29), breast (MCF-7), and liver (HepG2) cancer cells. They were provided by the National Institute of Cancer, Cairo University (Cairo, Egypt). The selection of those cancer cells was encouraged by the stated anticancer activity of a number 5-Fluorouracil hybrids against the mentioned cancer cells and based on the reported cytotoxic activity of a large range of bioactive cores containing sulfonamide moiety.
# (§2) Cells were seeded in 96 well plates at a density of 2 × 10^4 and incubated to allow the attachment for 24 h. Then the cells were treated at different concentrations (2.5–10 μM) with 5-FU as a positive control or the synthesized compounds for 48h. 0.1% DMSO was used as a negative control. Afterward, cells were washed using PBS and the viability of cells was evaluated utilizing in vitro toxicology assay kit, MTT Based (Stock No. TOX-1, Sigma-Aldrich, Saint Louis, Missouri, USA), per the manufacturer’s instructions. The plates were read at 570 nm. IC50 was calculated using a sigmoidal dose-response curve (GraphPad Prism version 5 for Windows (GraphPad Inc., USA)). Data are presented as the mean of the three individual experiments. The degree of selectivity of the active target compounds relative to WI38 normal cell lines is expressed as previously described. Selectivity index (SI) = IC50 of a pure compound in a normal cell line/IC50 of the same pure compound in a cancerous cell line.
# [2] = system: MCF-7 (breast) cancer cells; assay: In vitro cytotoxicity assessment (MTT), MCF-7; assay type: cell-based, human; conditions: for IC50: Homo sapiens, MCF7, 48 h, MTT, mean of three experiments ± SD, NA: not active
# From the text: as §1, §2
# [3] = system: A-2780, HT-29, MCF-7, and HepG2 cancer cell lines; assay: Cytotoxic screening, statements for the whole panel of four cancer cell lines; assay type: cell-based, human; conditions: A-2780, HT-29, MCF-7, HepG2
# From the text: as §1, §2
# [4] = system: HepG2 (liver) cancer cells; assay: In vitro cytotoxicity assessment (MTT), HepG2; assay type: cell-based, human; conditions: for IC50: Homo sapiens, HepG2, 48 h, MTT, mean of three experiments ± SD, NA: not active
# From the text: as §1, §2
# [5] = system: A-2780 (ovarian) cancer cells; assay: In vitro cytotoxicity assessment (MTT), A-2780; assay type: cell-based, human; conditions: for IC50: Homo sapiens, A2780, 48 h, MTT, mean of three experiments ± SD, NA: not active
# From the text: as §1, §2
# p21 = assay: Western blot analysis for p21 in MCF-7 cells; assay type: cell-based, human; conditions: 6e at IC50 (1.67 μM), 48 h, relative to actin
# Experimental: (§3) Whole-cell protein lysates were prepared according to a standard protocol using RIPA buffer (Cell Signaling, Danvers, MA, USA). Total protein concentrations were determined in the supernatant using the Bradford method. Equal amounts (20 µg) of protein samples were mixed and boiled with SDS Loading buffer for 10 min, allowed to cool on ice and then loaded into SDS-polyacrylamide gel and separated by Cleaver electrophoresis unit (Cleaver, UK), transferred onto polyvinylidene fluoride (PVDF) membranes (BioRad, USA) for 30 min using a Semi-dry Electroblotter (Biorad, USA) at 2.5 A and 25 V for 30 min. Membranes were blocked with 5% non-fat dry milk in TBS-T and incubated overnight with the primary antibody: anti-p21, anti-p27 antibody, or anti-β-actin antibody (1:1000; Cell Signaling Technology, Inc., Danvers, MA, USA), then incubated with secondary HRP-linked antibody (1:5000). Development was done using Pierce ECL2 chemiluminescent and chemifluorescent substrate (Perkin Elmer, Waltham, MA, USA). The chemiluminescent signals were captured using a CCD camera-based imager (Chemi Doc imager, Biorad, USA), and the bands’ intensities were then measured relative to actin by ImageLab (Biorad).
# HT-29 cells [6] = assay: Annexin V-FITC/PI apoptosis assay, HT-29; assay type: cell-based, human; conditions: 6e at its IC50, 48 h
# Experimental: (§4) For the apoptosis assay, the BioVision annexin V-FITC apoptosis detection kit (Cat No.: K101; BioVision, Inc., Milpitas, CA, USA) was used, per the manufacturer’s instructions. […] The cells were resuspended in 500 μL of Annexin V–binding buffer, followed by the addition of 5μL of Annexin V–FITC, then incubated in the dark for 10 min at room temperature. Analysis was performed using a FACS Calibur flow cytometer (BD Biosciences, San Jose, CA, USA), using […] software (Becton Dickinson Immunocytometry Systems, San Jose, CA, USA).
# A-2780 cells [7] = assay: Cell cycle analysis (PI flow cytometry), A-2780; assay type: cell-based, human; conditions: IC50 of 6e, 48 h
# Experimental: (§5) To evaluate cancer cells distribution through different cell cycle stages, the DNA content of propidium iodide-stained nuclei was assessed by flow cytometry as depicted earlier. […] Then, the cells were washed twice with ice-cold phosphate-buffered saline (PBS) and gathered by centrifugation. The cell pellets were mixed with 75% ethanol (−20 °C). Afterward, cells were stained with the propidium iodide flow cytometry kit (ab139418, Abcam, Cambridge, MA, USA), according to the manufacturer’s instructions. Cell cycle distribution was established by FACS Calibur flow cytometer (BD Biosciences, San Jose, CA, USA). Cell cycle distribution was measured using […] software (Becton Dickinson Immunocytometry Systems, San Jose, CA, USA).
# A-2780 cells [8] = assay: Annexin V-FITC/PI apoptosis assay, A-2780; assay type: cell-based, human; conditions: 6e at its IC50, 48 h
# Experimental: as §4
# WI38 normal cells = assay: In vitro cytotoxicity assessment (MTT), normal cells; assay type: cell-based; conditions: WI-38; normal human cell line WI38, MTT
# Experimental: as §2, with “Then the cells were treated at different concentrations (2.5–10 μM) with 5-FU as a positive control or the synthesized compounds for 48h.” left out
# HepG2 cells [9] = assay: Cell cycle analysis (PI flow cytometry), HepG2; assay type: cell-based, human; conditions: IC50 of 6e, 48 h
# Experimental: as §5
# HepG2 cells [10] = assay: Annexin V-FITC/PI apoptosis assay, HepG2; assay type: cell-based, human; conditions: 6e at its IC50, 48 h
# Experimental: as §4
# HT-29 cells [11] = assay: Cell cycle analysis (PI flow cytometry), HT-29; assay type: cell-based, human; conditions: IC50 of 6e, 48 h
# Experimental: as §5
# p27 = assay: Western blot analysis for p27 in MCF-7 cells; assay type: cell-based, human; conditions: 6e at IC50 (1.67 μM), 48 h, relative to actin
# Experimental: as §3
# MCF-7 cells [12] = assay: Cell cycle analysis (PI flow cytometry), MCF-7; assay type: cell-based, human; conditions: IC50 of 6e, 48 h
# Experimental: as §5
# CDK2/CyclinA2 = target: T1, CDK2/CyclinA2 (Homo sapiens, UniProt P24941); assay: In vitro inhibitory screening of CDK2 (CDK2 Assay kit, Kinase-Glo MAX); assay type: biochemical; conditions: CDK2/CyclinA2, 30 °C 45 min; mean of three experiments ± SD; read-out: CDK2 Protein Kinase (IC50 in µM)
# T1 construct: purchased #79599
# Experimental: To measure CDK2/CyclinA2 activity, the CDK2 Assay kit #79599 was used for screening and profiling applications, together with Kinase-Glo® MAX (Promega#V6071) as a detection reagent. […] Briefly, 25 μL of the master mixture containing 6 μL Kinase assay buffer + 1 μL ATP + 5 μL CDK substrate peptide + 13 μL distilled water were added to each well. Later, 5 µL of inhibitor buffer only or diluted compound were added to the blank or test inhibitor wells, respectively. Then, 20μL of Kinase assay buffer was added to blank wells. The reaction was started by the addition of 20 μL of CDK2/CyclinA2 enzyme to the wells of the test inhibitor. The final volume was 50 µL in all of the reactions. Incubation was at 30 °C for 45 min for all the enzymatic reactions. Finally, to each well, 50 μL of Kinase-Glo MAX reagent was added. The plate was incubated for 15 min at room temperature then, the luminescence signal was measured using a Bio Tek Synergy 2 microplate reader. Experiments were performed in triplicates.
# MCF-7 cells [13] = assay: Annexin V-FITC/PI apoptosis assay, MCF-7; assay type: cell-based, human; conditions: 6e at its IC50, 48 h
# Experimental: as §4
smiles,measurement,setting,value
"Cc1[nH]c(=S)[nH]c(=O)c1S(=O)(=O)C1Cc2ccccc2C1=O (centres unmarked) [Compound 5, 6-Methyl-5-(1-Oxo-2,3-Dihydro-1H-Inden-2-Ylsulfonyl)-2-Thioxo-2,3-Dihydropyrimidin-4(1H)-One]",melting point,,348 to 350 °C
same,IC50,[1],11.7 ± 1.96 µM
same,IC50,[2],17.3 ± 2.35 µM
same,"anticancer activity against the four cancer cell lines, in words",[3],low or no anticancer activity
"Cc1[nH]c(=S)[nH]c(=O)c1S(=O)(=O)Cl [Compound 2, 6-Methyl-4-Oxo-2-Thioxo-1,2,3,4-Tetrahydropyrimidine-5-Sulfonyl Chloride]",IC50,[4],17 ± 0.93 µM
same,melting point,,324 to 326 °C
same,IC50,[1],18 ± 1.04 µM
same,IC50,[5],21.4 ± 2.51 µM
same,IC50,[2],16.5 ± 1.4 µM
same,"anticancer activity against the four cancer cell lines, in words",[3],low anticancer activity
"Cc1[nH]c(=S)[nH]c(=O)c1S(=O)(=O)C1C(=O)CC(C)(C)CC1=O [Compound 4, 5,5-Dimethyl-2-[(6-Methyl-4-Oxo-2-Thioxo-1,2,3,4-Tetrahydropyrimidin-5-Yl)sulfonyl]cyclohexane-1,3-Dione]",melting point,,340 to 342 °C
same,IC50,[1],14.2 ± 2.85 µM
same,IC50,[2],10.8 ± 1.6 µM
same,"anticancer activity against the four cancer cell lines, in words",[3],low or no anticancer activity
"Cc1[nH]c(=S)[nH]c(=O)c1S(=O)(=O)Nc1cccc(Cl)c1Cl [Compound 6e, N-(2,3-Dichlorophenyl)-6-Methyl-4-Oxo-2-Thioxo-1,2,3,4-Tetrahydropyrimidine-5-Sulfonamide]","protein expression level of p21, increase compared to control",p21,about 2.6 fold
same,IC50,[4],2.02 ± 0.85 µM
same,SI (selectivity index) HepG2,[4]; IC50 in WI38 normal cells / IC50 in HepG2,29.80
same,melting point,,326 to 328 °C
same,% Early Apoptosis,HT-29 cells [6],1.61%
same,% Late Apoptosis,HT-29 cells [6],26.24%
same,% Necrosis,HT-29 cells [6],14.51%
same,% Total,HT-29 cells [6],42.36%
same,phase of cell growth arrest,A-2780 cells [7],G1/S phase
same,IC50,[1],1.75 ± 0.4 µM
same,SI (selectivity index) HT-29,[1]; IC50 in WI38 normal cells / IC50 in HT-29,34.40
same,% Early Apoptosis,A-2780 cells [8],2.38%
same,% Late Apoptosis,A-2780 cells [8],22.02%
same,% Necrosis,A-2780 cells [8],9.41%
same,% Total,A-2780 cells [8],33.81%
same,IC50,WI38 normal cells,60.2 ± 1.77 µM
same,phase of cell growth arrest,HepG2 cells [9],G2/M phase
same,% Early Apoptosis,HepG2 cells [10],0.84%
same,% Late Apoptosis,HepG2 cells [10],18.97%
same,% Necrosis,HepG2 cells [10],8.81%
same,% Total,HepG2 cells [10],28.62%
same,phase of cell growth arrest,HT-29 cells [11],S phase
same,"protein expression level of p27, increase compared to control",p27,~2.2 fold
same,IC50,[5],2.52 ± 0.47 µM
same,SI (selectivity index) A-2780,[5]; IC50 in WI38 normal cells / IC50 in A-2780,23.91
same,phase of cell growth arrest,MCF-7 cells [12],S phase
same,IC50,[2],1.67 ± 0.31 µM
same,SI (selectivity index) MCF-7,[2]; IC50 in WI38 normal cells / IC50 in MCF-7,36.05
same,IC50,CDK2/CyclinA2,0.407 ± 0.021 µM
same,% Early Apoptosis,MCF-7 cells [13],3.82%
same,% Late Apoptosis,MCF-7 cells [13],23.71%
same,% Necrosis,MCF-7 cells [13],11.75%
same,% Total,MCF-7 cells [13],39.28%
